Experiments:
[1] = system: RNA polymerase II Serine 5 phosphorylation (Rpb1 CTD), downstream substrate of CDK7; assay: Imaging-based cellular RNA PolII Ser5 phosphorylation assay in A549 cells; type: cell-based, human; conditions: Homo sapiens, A549, 3 h, challenged with compound for 3 hours, read-out: pRNA polII Ser5 (A549) pIC50 (converted)
Outline: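 A549 cells seeded 20 h in DMEM with 1% FBS, then exposed to compound for 3 h at 37 °C; fixed, methanol-permeabilized and immunostained for phospho-Rpb1 CTD Ser5, read by automated imaging. Signal normalized to DMSO (high) and 10 μM LDC4297 (low) controls; IC50 from four-parameter fit of % control vs concentration.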

[2] = target: T1, CDK7/Cyclin H/MAT-1 complex (Homo sapiens, UniProt P50613); assay: Flint assay, end-point fluorescence (5 nM CDK7/Cyclin H/MAT-1 complex); type: biochemical
T1 construct: Human CDK7 (amino acids 1-346); His6 (N); TEV protease cleavage site (N); made in house; host or cells: baculovirus-SF9 insect cells
Outline: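 Trimeric complex of His6-TEV-tagged human CDK7 (1-346), MAT1 (1-309) and cyclin H (1-323), co-expressed in Sf9 cells, at 5 nM final, with substrates and coupling reagents as in the absorbance assay; 24 h reaction. End-point NADH fluorescence decrease (ex 340/em 440 nm); % inhibition versus no-inhibitor and full-inhibition controls, IC50 from four-parameter Hill fit.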

T1 sequence (P50613 whole entry, the tested form may be a part): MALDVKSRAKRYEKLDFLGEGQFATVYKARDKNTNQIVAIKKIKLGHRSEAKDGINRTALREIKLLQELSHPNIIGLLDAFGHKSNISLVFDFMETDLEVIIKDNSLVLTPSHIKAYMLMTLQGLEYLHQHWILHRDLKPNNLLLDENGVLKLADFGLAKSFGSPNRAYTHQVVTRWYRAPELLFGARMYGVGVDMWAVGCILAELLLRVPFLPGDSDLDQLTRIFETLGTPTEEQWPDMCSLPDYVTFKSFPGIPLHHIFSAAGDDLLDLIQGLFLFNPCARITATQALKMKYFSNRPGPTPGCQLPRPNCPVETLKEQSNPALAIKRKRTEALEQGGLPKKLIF
T1 sequence (P51946 whole entry partner, the tested form may be a part): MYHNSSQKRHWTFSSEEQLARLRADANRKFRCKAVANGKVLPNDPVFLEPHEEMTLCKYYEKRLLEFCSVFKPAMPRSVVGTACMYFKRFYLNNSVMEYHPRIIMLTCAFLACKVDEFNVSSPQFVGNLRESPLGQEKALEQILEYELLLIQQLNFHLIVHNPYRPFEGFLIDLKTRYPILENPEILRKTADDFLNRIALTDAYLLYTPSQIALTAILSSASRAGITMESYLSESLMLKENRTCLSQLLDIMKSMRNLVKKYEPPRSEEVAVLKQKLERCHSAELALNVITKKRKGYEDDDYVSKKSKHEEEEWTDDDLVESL
T1 sequence (P51948 whole entry partner, the tested form may be a part): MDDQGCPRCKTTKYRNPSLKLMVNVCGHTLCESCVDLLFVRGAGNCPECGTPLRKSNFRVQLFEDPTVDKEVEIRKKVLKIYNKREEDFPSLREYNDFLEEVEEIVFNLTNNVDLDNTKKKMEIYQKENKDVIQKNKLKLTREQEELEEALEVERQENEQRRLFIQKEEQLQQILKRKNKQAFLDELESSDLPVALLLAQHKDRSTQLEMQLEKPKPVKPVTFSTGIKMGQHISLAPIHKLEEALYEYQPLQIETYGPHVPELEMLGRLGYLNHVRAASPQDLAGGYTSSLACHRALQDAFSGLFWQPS

IC50 [1]: ~0.0631 µM | CDK7 (5 nM) pIC50 [2]: 8.5
SMILES: C[C@@H]1Cc2cnc(NC3CCOCC3)nc2CN1C(=O)[C@H]1CCN(C)C[C@@H]1c1ccc(Cl)c(F)c1 [Compound 122b]
